pIC50: −log10 of the molar value.
Tests used:
[1] = Selectivity ratio of IC50 for Aurora B to IC50 for Tie2
Angiopoietin-1 receptor [2] = biological target: T1, Angiopoietin-1 receptor (Homo sapiens, UniProt Q02763); test: Inhibition of Tie2
[3] = biological target: T2, Vascular endothelial growth factor receptor 2 (Homo sapiens, UniProt P35968); test: Inhibition of KDR
Aurora kinase B [4] = biological target: T3, Aurora kinase B (Homo sapiens, UniProt Q96GD4); test: Inhibition of Aurora B
[5] = biological target: T4, Aurora kinase A (Homo sapiens) (UniProt O14965); test: Inhibition of Aurora A at 1 uM relative to control; values are per cent of control
T4 sequence (whole entry): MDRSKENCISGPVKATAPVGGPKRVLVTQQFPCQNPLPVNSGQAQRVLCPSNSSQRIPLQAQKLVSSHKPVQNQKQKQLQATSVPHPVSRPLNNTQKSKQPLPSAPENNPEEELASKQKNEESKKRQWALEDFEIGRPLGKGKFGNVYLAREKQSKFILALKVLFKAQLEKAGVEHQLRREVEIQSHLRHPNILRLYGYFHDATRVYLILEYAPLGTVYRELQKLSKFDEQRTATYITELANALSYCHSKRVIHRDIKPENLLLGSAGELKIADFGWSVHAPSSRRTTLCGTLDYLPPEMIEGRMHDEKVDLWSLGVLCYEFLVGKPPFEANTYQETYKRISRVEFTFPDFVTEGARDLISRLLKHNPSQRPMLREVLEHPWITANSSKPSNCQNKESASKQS

Aurora kinase A = biological target: T5, Aurora kinase A (Homo sapiens, UniProt O14965); test: Inhibition of Aurora A
T5 sequence (O14965 whole entry): T4 sequence (whole entry)

[6] = biological target: T2, Vascular endothelial growth factor receptor 2; test: Inhibition of KDR at 1 uM relative to control; values are per cent of control
Aurora kinase B [7] = biological target: T3, Aurora kinase B; test: Inhibition of Aurora B at 1 uM relative to control; values are per cent of control
[8] = Selectivity ratio of IC50 for KDR to IC50 for Tie2
[9] = biological target: Tyrosine-protein kinase Lck (Homo sapiens, UniProt P06239); test: Inhibition of LCK
[10] = Selectivity ratio of IC50 for LCK to IC50 for Tie2
[11] = Selectivity ratio of IC50 for Aurora A to IC50 for Tie2
Angiopoietin-1 receptor [12] = biological target: T1, Angiopoietin-1 receptor; test: Inhibition of Tie2 at 1 uM relative to control; values are per cent of control

Chain of Tyrosine-protein kinase Lck (P06239 whole entry): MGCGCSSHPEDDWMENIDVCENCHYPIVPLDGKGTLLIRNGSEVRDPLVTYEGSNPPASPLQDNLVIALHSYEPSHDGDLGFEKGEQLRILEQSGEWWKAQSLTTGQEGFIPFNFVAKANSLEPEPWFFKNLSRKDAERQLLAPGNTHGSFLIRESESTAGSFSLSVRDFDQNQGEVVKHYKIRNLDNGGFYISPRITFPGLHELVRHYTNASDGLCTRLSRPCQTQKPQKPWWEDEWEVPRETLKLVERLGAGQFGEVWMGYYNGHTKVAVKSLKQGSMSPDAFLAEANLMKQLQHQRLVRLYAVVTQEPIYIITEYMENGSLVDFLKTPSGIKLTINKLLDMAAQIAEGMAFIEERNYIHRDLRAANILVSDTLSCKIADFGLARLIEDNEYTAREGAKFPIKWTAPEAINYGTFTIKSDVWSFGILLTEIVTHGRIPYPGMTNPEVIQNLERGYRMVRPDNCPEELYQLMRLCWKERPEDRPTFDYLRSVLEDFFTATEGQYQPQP
T3 sequence (Q96GD4 whole entry): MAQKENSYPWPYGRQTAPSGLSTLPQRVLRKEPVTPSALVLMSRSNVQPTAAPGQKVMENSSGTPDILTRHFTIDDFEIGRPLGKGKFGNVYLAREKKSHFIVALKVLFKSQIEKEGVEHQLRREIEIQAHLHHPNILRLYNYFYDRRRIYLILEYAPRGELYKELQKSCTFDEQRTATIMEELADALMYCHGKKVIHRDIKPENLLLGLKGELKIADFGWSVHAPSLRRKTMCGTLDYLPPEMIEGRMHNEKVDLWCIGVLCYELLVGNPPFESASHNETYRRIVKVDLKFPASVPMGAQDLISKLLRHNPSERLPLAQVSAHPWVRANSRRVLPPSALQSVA
T1 sequence (Q02763 whole entry): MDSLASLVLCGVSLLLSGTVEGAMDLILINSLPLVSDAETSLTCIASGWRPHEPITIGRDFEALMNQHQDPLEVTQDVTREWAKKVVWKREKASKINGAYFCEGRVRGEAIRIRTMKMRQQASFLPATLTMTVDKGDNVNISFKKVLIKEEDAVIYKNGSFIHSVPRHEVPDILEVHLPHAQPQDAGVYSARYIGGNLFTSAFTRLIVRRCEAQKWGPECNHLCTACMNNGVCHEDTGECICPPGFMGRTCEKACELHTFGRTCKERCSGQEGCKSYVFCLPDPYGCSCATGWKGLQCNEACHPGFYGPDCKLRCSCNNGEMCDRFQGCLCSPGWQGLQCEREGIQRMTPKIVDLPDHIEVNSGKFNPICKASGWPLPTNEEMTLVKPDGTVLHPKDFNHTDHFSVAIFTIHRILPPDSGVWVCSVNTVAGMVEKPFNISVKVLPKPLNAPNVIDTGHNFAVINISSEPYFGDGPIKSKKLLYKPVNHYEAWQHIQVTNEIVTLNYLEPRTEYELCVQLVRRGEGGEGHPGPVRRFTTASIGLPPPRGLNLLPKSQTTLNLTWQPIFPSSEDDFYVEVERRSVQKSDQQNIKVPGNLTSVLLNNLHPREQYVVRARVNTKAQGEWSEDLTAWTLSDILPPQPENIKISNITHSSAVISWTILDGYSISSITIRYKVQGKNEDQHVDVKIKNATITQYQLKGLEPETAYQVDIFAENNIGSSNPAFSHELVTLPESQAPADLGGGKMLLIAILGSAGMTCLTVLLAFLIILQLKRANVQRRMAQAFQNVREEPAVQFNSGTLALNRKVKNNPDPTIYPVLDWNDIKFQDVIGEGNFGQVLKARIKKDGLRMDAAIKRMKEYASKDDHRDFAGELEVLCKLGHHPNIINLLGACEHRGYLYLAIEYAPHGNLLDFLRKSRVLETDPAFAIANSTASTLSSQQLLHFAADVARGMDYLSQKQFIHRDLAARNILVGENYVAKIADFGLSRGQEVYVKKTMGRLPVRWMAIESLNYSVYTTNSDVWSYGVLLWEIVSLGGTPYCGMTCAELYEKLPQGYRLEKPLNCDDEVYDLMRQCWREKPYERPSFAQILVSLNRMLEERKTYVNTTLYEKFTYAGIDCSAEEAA
T2 sequence (P35968 whole entry): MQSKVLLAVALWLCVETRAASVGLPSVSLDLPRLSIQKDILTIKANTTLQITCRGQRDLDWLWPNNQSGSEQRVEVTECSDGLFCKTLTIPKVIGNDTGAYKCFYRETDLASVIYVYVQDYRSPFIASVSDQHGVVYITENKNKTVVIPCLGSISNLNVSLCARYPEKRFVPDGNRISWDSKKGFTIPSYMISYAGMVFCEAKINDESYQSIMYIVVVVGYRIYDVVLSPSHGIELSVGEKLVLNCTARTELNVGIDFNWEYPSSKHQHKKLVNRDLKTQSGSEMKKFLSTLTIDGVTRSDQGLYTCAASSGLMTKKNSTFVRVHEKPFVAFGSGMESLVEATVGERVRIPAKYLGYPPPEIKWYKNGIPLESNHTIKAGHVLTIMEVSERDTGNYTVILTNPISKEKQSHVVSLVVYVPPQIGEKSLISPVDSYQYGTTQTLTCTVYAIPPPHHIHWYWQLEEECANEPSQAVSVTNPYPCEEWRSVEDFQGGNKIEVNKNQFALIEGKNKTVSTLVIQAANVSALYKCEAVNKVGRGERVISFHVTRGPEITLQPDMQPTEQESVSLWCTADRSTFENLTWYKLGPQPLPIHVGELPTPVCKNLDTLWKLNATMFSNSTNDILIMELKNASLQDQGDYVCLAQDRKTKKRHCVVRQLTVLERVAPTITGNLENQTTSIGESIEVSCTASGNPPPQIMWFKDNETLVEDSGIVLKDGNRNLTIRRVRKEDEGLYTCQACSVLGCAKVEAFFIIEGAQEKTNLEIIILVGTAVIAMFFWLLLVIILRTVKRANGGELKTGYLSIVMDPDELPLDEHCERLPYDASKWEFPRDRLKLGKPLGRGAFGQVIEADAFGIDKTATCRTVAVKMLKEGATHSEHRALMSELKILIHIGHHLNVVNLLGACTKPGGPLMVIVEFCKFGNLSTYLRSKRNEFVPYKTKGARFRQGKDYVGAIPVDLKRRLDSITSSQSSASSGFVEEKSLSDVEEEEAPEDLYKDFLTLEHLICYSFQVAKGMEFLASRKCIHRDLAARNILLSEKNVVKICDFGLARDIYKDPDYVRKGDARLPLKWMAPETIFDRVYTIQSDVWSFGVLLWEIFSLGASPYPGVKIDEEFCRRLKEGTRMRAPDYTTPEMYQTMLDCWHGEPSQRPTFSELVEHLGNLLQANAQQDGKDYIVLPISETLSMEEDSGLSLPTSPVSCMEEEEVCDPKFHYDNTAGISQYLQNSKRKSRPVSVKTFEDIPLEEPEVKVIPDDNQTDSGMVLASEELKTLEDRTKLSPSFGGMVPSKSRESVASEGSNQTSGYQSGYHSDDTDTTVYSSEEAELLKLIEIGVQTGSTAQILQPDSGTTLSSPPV

| Ratio IC50 [1] | pIC50 (Angiopoietin-1 receptor [2]) | pIC50 [3] | pIC50 (Aurora kinase B [4]) | residual activity [5] [%] | residual activity [6] [%] | residual activity (Aurora kinase B [7]) [%] | Ratio IC50 [8] | pIC50 [9] | Ratio IC50 [10] | Ratio IC50 [11] | residual activity (Angiopoietin-1 receptor [12]) [%] | SMILES | pIC50 (Aurora kinase A) |
| --- | --- | --- | --- | --- | --- | --- | --- | --- | --- | --- | --- | --- | --- |
| 5 | 7.07 | 5.20 | 6.34 | 52 | 86 | 31 | 74 | 5.32 | 56 | 12 | 8 | CNc1nccc(-c2cccnc2Oc2ccc(Nc3nc4ccncc4[nH]3)c3ccccc23)n1 | 5.97 |
| 7 | – | – | 8.05 | 2 | 58 | 1 | 998 | 6.53 | 211 | 14 | 0 | CNc1nccc(-c2cccnc2Oc2ccc(Nc3nc4ccccc4[nH]3)c3ccccc23)n1 | – |
| 4 | – | – | 7.64 | 5 | 4 | 2 | 7 | 7.32 | 9 | 10 | 1 | CNc1nccc(-c2cccnc2Oc2ccc(NC(=O)Nc3ccccc3)c3ccccc23)n1 | 7.28 |
| 2 | – | – | – | 2 | 6 | 5 | 3 | – | 5 | 1 | 3 | CNc1nccc(-c2cccnc2Oc2ccc(Nc3nc4ccc(C(F)(F)F)cc4[nH]3)c3ccccc23)n1 | – |
| 0.1 | 6.67 | 5.65 | 7.26 | 18 | 69 | 5 | 10 | 5.39 | 19 | 1 | 18 | CNc1nccc(-c2cccnc2Oc2ccc(NC(=O)NC(C)(C)C)c3ccccc23)n1 | 6.65 |
| 9 | 7.09 | 5.00 | 6.12 | 62 | 91 | 43 | 123 | 5.00 | 123 | 20 | 8 | CN(C)CC(C)(C)CNc1nccc(-c2cccnc2Oc2ccc(Nc3nc4ccccc4[nH]3)c3ccccc23)n1 | 5.78 |
| – | – | 5.00 | 7.11 | 3 | 91 | 7 | – | 6.39 | – | – | 0 | CNc1nccc(-c2cccnc2Oc2c(C)cc(Nc3nc4ccccc4[nH]3)c3ccccc23)n1 | 7.54 |

| SMILES | Ratio IC50 [1] | pIC50 (Angiopoietin-1 receptor [2]) | pIC50 [3] | pIC50 (Aurora kinase B [4]) | residual activity [5] [%] | residual activity [6] [%] | residual activity (Aurora kinase B [7]) [%] | Ratio IC50 [8] | pIC50 [9] | Ratio IC50 [10] | Ratio IC50 [11] | residual activity (Angiopoietin-1 receptor [12]) [%] | pIC50 (Aurora kinase A) |
| --- | --- | --- | --- | --- | --- | --- | --- | --- | --- | --- | --- | --- | --- |
| CNc1nccc(-c2cccnc2Oc2ccc(Nc3nc4ccccc4s3)c3ccccc23)n1 | 3 | – | – | 6.84 | 28 | 8 | 13 | 2 | 7.10 | 2 | 9 | 4 | 6.42 |
| CNc1nccc(-c2cccnc2Oc2ccc(Nc3nc4ccccc4o3)c3ccccc23)n1 | 3 | – | – | 6.87 | 12 | 3 | 12 | 2 | 7.60 | 2 | 9 | 2 | 6.85 |
| CN1CCCC1CCNc1nccc(-c2cccnc2Oc2ccc(Nc3nc4ccccc4[nH]3)c3ccccc23)n1 (stereo unspecified) | 21 | 8.70 | 5.69 | 7.33 | 25 | 67 | 4 | – | 6.57 | 120 | 146 | 0 | 6.49 |
| CNc1nccc(-c2cccnc2Oc2ccc(Nc3nc4cc(C(F)(F)F)ccc4[nH]3)c3ccccc23)n1 | – | – | – | 7.25 | – | – | – | – | 6.88 | – | – | – | 7.80 |
| CCN1CCC(CNc2nccc(-c3cccnc3Oc3ccc(Nc4nc5ccccc5[nH]4)c4ccccc34)n2)CC1 | 100 | 9.00 | 5.76 | 7.00 | 25 | 64 | 9 | 1750 | 6.41 | 387 | 332 | 0 | 6.48 |
